Reference: patent US20060122181A1, “Heteroaromatic pentacyclic compound and medicinal use thereof” (Japan Tobacco Inc., priority 2003, published 2006)

Row | Structure (SMILES) | melting point
1 | CCCC(CCC)c1ccc(OCc2ccc(-c3csc(CN(C)c4cccc(C(=O)O)n4)n3)cc2)cc1 [Example 1-143] | 123 to 125 °C
2 | CCCC(CCC)c1ccc(N(Cc2ccc3nc(-c4csc(COc5cncc(C(=O)O)c5)n4)oc3c2)C(C)C)cc1 [Example 1-140] | 135 to 138 °C
3 | CCCC(CCC)c1ccc(OCc2ccc(-c3csc(COc4cncc(C(=O)O)c4)c3)cc2)cc1.Cl | 170 to 173 °C
4 | CCC(CC)c1ccc(N(Cc2ccc(-c3csc(COc4ccc(C(=O)O)cc4)n3)cc2)C(C)C)cc1 [Example 1-2] | 219 °C
5 | CCCC(CCC)c1ccc(OCc2ccc(-c3csc(COc4ncccc4C(=O)O)n3)cc2)cc1 [Example 1-76] | 154.5 °C
6 | CCCC(CCC)c1ccc(N(Cc2ccc(-c3csc(COc4cc(C(=O)O)ccc4NC(=O)C(C)C)n3)cc2)C(C)C)cc1 [Example 1-113] | 166 to 168 °C
7 | CCCC(CCC)c1ccc(Cn2c(-c3csc(CN4CCC(c5ccc(C(=O)O)cc5)CC4)n3)nc3ccccc32)cc1 [Example 1-171] | 208.5 to 209.8 °C
8 | CCC(CC)c1ccc(N(Cc2ccc(-c3csc(CSc4ccc(C(=O)O)cc4)n3)cc2)C(C)C)cc1 [Example 1-13] | 132.5 °C
9 | CCCC(CCC)c1ccc(OCc2ccc(-c3csc(CNC(=O)c4ccc(C(=O)O)cn4)n3)cc2)cc1 [Example 1-163] | 164 to 166 °C
10 | CCCC(CCC)c1ccc(OCc2ccc(-c3csc(CN(C)[C@@H](Cc4ccccc4)C(=O)O)n3)cc2)cc1 [Example 1-42] | 114 to 118 °C
11 | CCCC(CCC)c1ccc(N(Cc2ccc(-c3csc(COc4cncc(C(=O)O)c4)n3)cc2)C(C)C)cc1.[Na+] [Example 1-68] | 185 °C (dec.)
12 | CCCC(CCC)c1ccc(Cn2cc(-c3csc(CN4CCC(C(=O)O)CC4)n3)c3ccccc32)cc1 [Example 1-165] | 111 to 115 °C
13 | CCC(CC)CN(Cc1ccc(-c2csc(COc3cncc(C(=O)O)c3)n2)cc1)c1ccc(C(C)C)cc1 [Example 1-74] | 181 °C
14 | CCCC(CCC)N(Cc1ccc(-c2csc(COc3ccc(C(=O)O)cc3)n2)cc1)c1ccc(C(C)C)cc1 [Example 1-9] | 166 to 168 °C
15 | CCC(CC)c1ccc(N(Cc2ccc(-c3csc(CN4Cc5ccccc5CC4C(=O)O)n3)cc2)C(C)C)cc1 (stereo not shown) [Example 1-32] | 127.5 °C
16 | CCCC(CCC)c1ccc(CN(C)C(=O)c2ccc(-c3csc(CN(CC(=O)O)Cc4ccccc4)n3)cc2)cc1 [Example 1-56] | 65 to 71 °C
17 | CCCC(CCC)c1ccc(N(Cc2ccc3nc(-c4csc(CN(CC(=O)O)Cc5nc6ccccc6[nH]5)n4)oc3c2)C(C)C)cc1 [Example 1-139] | 127 to 133 °C
18 | CC(C)CN(Cc1ccc(-c2csc(CN(CC(=O)O)S(=O)(=O)c3ccccc3)n2)cc1)c1ccc(C(C)(C)C)cc1 [Example 1-31] | 168.5 °C
19 | CCCC(CCC)c1ccc2c(c1)nc(-c1csc(COc3ccc(C(=O)O)cc3)n1)n2Cc1cccc(C)n1 [Example 1-159] | 113 to 116 °C
20 | CCCC(CCC)c1ccc(Cn2cc(-c3csc(CN4C[C@H](O)C[C@H]4C(=O)O)n3)c3ccccc32)cc1 [Example 1-180] | 105 to 107 °C
21 | CCCC(CCC)N(Cc1ccc(-c2csc(COc3cncc(C(=O)O)c3)n2)cc1)c1ccc(C(C)C)cc1 [Example 1-7] | 184 to 185 °C
22 | CCC(CC)N(Cc1ccc(-c2csc(COc3cncc(C(=O)O)c3)n2)cc1)c1ccc(C(C)C)cc1 [Example 1-12] | 110 to 114 °C
23 | CCCC(CCC)c1ccc(N(C)Cc2ccc(-c3csc(CSc4ccc(C(=O)O)cc4)n3)cc2)cc1 [Example 1-14] | 122 to 124 °C
24 | CCCC(CCC)c1ccc(OCc2ccc(-c3csc(Cn4nc(C(C)(C)C)cc4C(=O)O)n3)cc2)cc1 [Example 1-179] | 123 to 125 °C
25 | CN(Cc1ccc(-c2csc(N(C)Cc3ccc(C(=O)O)cc3)n2)cc1)c1ccc(C2CCCCC2)cc1 [Example 1-18] | 190 to 192 °C
26 | CCCC(CCC)c1ccc(OCc2ccc(-c3csc(Cn4nc(C)cc4C(=O)O)n3)cc2)cc1 [Example 1-176] | 141 to 143 °C
27 | CCC(CC)c1ccc(N(Cc2ccc(-c3csc(N(C)Cc4ccc(C(=O)O)cc4)n3)cc2)C(C)C)cc1 [Example 1-20] | 150 to 153 °C
28 | CCCCOc1ccc(COc2ccc(-c3csc(CN4CCC(c5cccc(C(=O)O)c5)CC4)n3)cc2)cc1 [Example 1-175] | 222 to 225 °C

Next, values leading:

Row | melting point | Structure (SMILES)
29 | 176 to 182 °C | CCCC(CCC)c1ccc(OCc2ccc(-c3csc(CN(CCC(C)C)CC(=O)O)c3)cc2)cc1 [Example 4-71]
30 | 77 to 82 °C | CC(C)c1ccc(CN(CC(=O)O)Cc2nc(-c3ccc(N(Cc4ccc(C(C)C)cc4)C(C)C)cc3)cs2)cc1 [Example 3-45]
31 | 139 to 142 °C | CCC(CC)c1ccc2c(c1)nc(-c1csc(COc3ccc(C(=O)O)cc3)n1)n2Cc1ccc(C(C)C)cc1 [Example 3-129]
32 | 132 to 135 °C | CCCC(CCC)c1ccc(CN2CCCc3cc(-c4csc(CN(CC(=O)O)Cc5nc(C(C)(C)C)cs5)n4)ccc32)cc1 [Example 3-125]
33 | 144 to 147 °C | CN(Cc1ccccc1)c1ccc(-c2csc(CN(CC(=O)O)Cc3ccc4ccccc4n3)n2)cc1 [Example 3-55]
34 | 155 to 157 °C | CC(C)Cc1ccc(COc2ccc(C(C)(C)C)cc2-c2csc(CN(CC(=O)O)Cc3ccccc3)n2)cc1 [Example 3-12]
35 | 141 to 144 °C | CCCC(CCC)c1ccc(COc2ccc(-c3csc(CN(CC(=O)O)C(=O)c4ccccc4)n3)cc2)cc1 [Example 3-22]
36 | 162 to 164 °C | CN(Cc1nc(-c2ccc(N(C)Cc3ccc(C4CCCCC4)cc3)cc2)cs1)C(=O)c1ccc(C(=O)O)cc1 [Example 3-107]
37 | 155 °C | CCCC(CCC)c1ccc(OCc2ccc(-c3csc(CN(CC(=O)O)CC(=O)Nc4ccccc4)c3)cc2)cc1 [Example 4-16]
38 | 233 to 235 °C | CC(C)CCC1(C(=O)O)CCN(Cc2nc(-c3ccc(N(C)Cc4ccc(C5CCCCC5)cc4)cc3)cs2)CC1 [Example 3-68]
39 | 149 to 151 °C | CC(C)Cc1ccc(CN(C)c2ccc(-c3csc(CN(CC(=O)O)Cc4ccccc4)n3)cc2)cc1 [Example 3-39]
40 | 122 °C | CC(C)CCSc1ccc(CN(C)c2ccc(-c3csc(CN(CC(=O)O)Cc4ccccc4)n3)cc2)cc1 [Example 3-42]
41 | 154 to 157 °C | CCC(CC)c1ccc(COc2ccc(-c3csc(CN(CC(=O)O)Cc4ccc(Cl)cc4)n3)cc2)cc1 [Example 3-17]
42 | 166 °C | CCCC(CCC)c1ccc(OCc2ccc(-c3csc(CN(CC(=O)O)Cc4nc(C(C)(C)C)cs4)c3)cc2)cc1 [Example 4-15]
43 | 151 to 155 °C (dec.) | CCCC(CCC)c1ccc(OCc2ccc(-c3csc(COc4cncc(C(=O)O)c4)c3)cc2)cc1.O=S(=O)(O)O [Example 4-48]
44 | 173 to 175 °C | CCCC(CCC)c1ccc(OCc2ccc(-c3ccc(CN(CC(=O)O)Cc4nc5ccccc5[nH]4)s3)cc2)cc1 [Example 4-8]
45 | 153 to 156 °C | CCCC(CCC)c1ccc(OCc2ccc(-c3ccc(C(=O)N(CC(=O)O)Cc4cccnc4)s3)cc2)cc1 [Example 4-47]
46 | 144 to 150 °C | CCCC(CCC)c1ccc(N(Cc2ccc(-c3ccc(CN(CC(=O)O)Cc4nc5ccccc5[nH]4)s3)cc2)C(C)C)cc1 [Example 4-22]

Row | melting point | Structure (SMILES)
47 | 133 to 134 °C | CN(CCc1ccc(CC(C)(C)C)cc1)c1ccc(-c2csc(CN(CC(=O)O)Cc3ccccc3)n2)cc1 [Example 3-31]
48 | 184 to 190 °C | CN(Cc1ccc(C2CCC(C)(C)CC2)cc1)c1ccc(-c2csc(CN(C)S(=O)(=O)CC(=O)O)n2)cc1 [Example 3-99]
49 | 122 to 124 °C | CCCC(CCC)c1ccc(OCc2ccc(-c3ccc(CN(CC(=O)O)CC(=O)Nc4ccccc4)s3)cc2)cc1 [Example 4-10]
50 | 82 to 84 °C | CCCC(CCC)c1ccc(OCc2ccc(-c3ccc(CN(CC(=O)OCC)Cc4nc5ccccc5n4C)s3)cc2)cc1 [Example 4-83]
51 | 143 to 145 °C | CC(C)Cc1ccc(CN(C)c2ccc(-c3csc(CN(CC(=O)O)C(=O)c4ccccc4)n3)cc2)cc1 [Example 3-61]
52 | 153 to 154 °C | CC(C)CCN(CC(=O)O)Cc1nc(-c2ccc(N(C)Cc3ccc(C4CCCCC4)cc3)cc2)cs1 [Example 3-91]
53 | 78 to 82 °C | CCCC(CCC)c1ccc(N(Cc2ccc(-c3ccc(CN(CC(=O)O)Cc4nc(C(C)(C)C)cs4)s3)cc2)C(C)C)cc1 [Example 4-20]
54 | 156 to 158 °C | CCCC(CCC)c1ccc(COc2ccc(-c3csc(COc4cncc(C(=O)O)c4)n3)cc2OC)cc1 [Example 3-115]
55 | 138 to 139 °C | CC(C)Cc1ccc(CN(C)c2ccc(-c3csc(CN(C)C(Cc4ccccc4)C(=O)O)n3)cc2)cc1 (stereo not shown) [Example 3-85]
56 | 117 to 118 °C | CC(C)CC(=O)N(CC(=O)O)Cc1nc(-c2ccc(N(C)Cc3ccc(CC(C)C)cc3)cc2)cs1 [Example 3-59]
57 | 106 to 107 °C | CCOC(=O)c1ccc(OCc2nc(-c3nc4cc(C(CC)CC)ccc4n3Cc3ccc(C(C)C)cc3)cs2)cc1 [Example 3-128]
58 | 161 to 166 °C | CC(C)(C)Cc1nc2ccccc2n1Cc1ccc(-c2csc(CN(CC(=O)O)Cc3ccccc3)c2)cc1 [Example 4-85]
59 | 130 to 131 °C | CCCC(CCC)c1ccc(COc2ccc(Cl)cc2-c2csc(CN(CC(=O)O)Cc3ccccc3)n2)cc1 [Example 3-13]
60 | 133.1 to 136.5 °C | CCCC(CCC)c1ccc(OCc2ccc(-c3ccc(CN(CC(=O)O)S(C)(=O)=O)s3)cc2)cc1 [Example 4-49]
61 | 152 to 153 °C | CN(Cc1ccc(CC(C)(C)C)cc1)c1ccc(-c2csc(CN(CC(=O)O)C(=O)Nc3ccccc3)n2)cc1 [Example 3-60]
62 | 226 to 228 °C | CN(Cc1ccc(C2CCCCC2)cc1)c1ccc(-c2csc(CN(C)c3ccc(C(=O)O)cn3)n2)cc1 [Example 3-84]
63 | 178 to 181 °C | CCCC(CCC)c1ccc(CN(C)c2ccc(-c3csc(COc4cncc(C(=O)O)c4)n3)cc2)cc1 [Example 3-94]
64 | 120.5 °C | CCCC(CCC)c1ccc(OCc2ccc(-c3csc(CN(CC(=O)O)Cc4ncc(C(C)(C)C)o4)c3)cc2)cc1 [Example 4-29]
